# Reference: patent US8188059B2, “Compounds and methods for modulating expression of GCGR” (Isis Pharmaceuticals, Inc., priority 2006, dated 2012)
# Strand notation (5' to 3'): a small letter for the sugar, then the base; units joined by * are phosphorothioate-linked, units joined directly phosphodiester-linked; [ ] holds rarer units or linkages, { } end groups; capitals alone tell only the bases. e = 2'-O-(2-methoxyethyl) (MOE); [5mC] = 5-methylcytosine; d = 2'-deoxy (DNA)
# Assays:
# rat DGAT2 mRNA [1] = experiment: Dose-dependent inhibition of DGAT2 in A10 cells, 6.25-200 nM (Example 22, Table 82); format: cell-based
# Protocol: Additional short antisense compounds targeted to DGAT2 mRNA were tested in vitro in a dose-response experiment. A10 cells were prepared as described above and treated with 6.25, 12.5, 25.0, 50.0, 100.0, and 200.0 nM short antisense compounds to determine if DGAT2 inhibition occurs in a dose-dependent manner. […] Results are presented as percent inhibition, relative to untreated control cells.
# DGAT2 mRNA = experiment: Antisense inhibition of DGAT2 in A10 cells at 75 nM (Example 22, Table 81); format: cell-based, rat; details: approximately 24 hours
# Protocol: Short antisense compounds targeted to a DGAT2 nucleic acid were tested for their effects on DGAT2 mRNA in vitro. Cultured A10 cells in a 96-well plate were treated with 75 nM of short antisense compound. After a treatment period of approximately 24 hours, RNA was isolated from the cells and DGAT2 mRNA levels were measured by quantitative real-time PCR, as described herein. DGAT2 mRNA levels were adjusted according to total RNA content as measured by RIBOGREEN®. […]
# rat DGAT2 mRNA [2] = experiment: Dose-dependent inhibition of DGAT2 in A10 cells, 0.62-150 nM (Example 22, Table 83); format: cell-based
# Protocol: Additional short antisense compounds targeted to DGAT2 mRNA were tested in vitro. A10 cells were prepared as described above and treated with 0.62, 1.85, 5.56, 16.67, 50.0, and 150.0 nM short antisense compounds to determine if DGAT2 inhibition occurs in a dose-dependent manner. DGAT2 mRNA was measured using quantitative real-time PCR, as described herein. […] Results are presented as percent inhibition of rat DGAT2, relative to untreated control cells.
# mouse SGLT2 mRNA = experiment: Mouse SGLT2 mRNA levels in kidney, additional 1-10-1 and 2-8-2 MOE gapmers, Balb/c mice (Example 15, Table 68); format: in vivo
# Protocol: 1-10-1 and 2-8-2 MOE gapmer short antisense compounds were designed to target different regions of the mouse SGLT2 RNA but have complementarity across species. […] All cytidine residues are 5-methylcytidines.
# The short antisense compounds were analyzed for their effect on mouse SGLT2 mRNA levels in vivo. Data was taken from three experiments in which male 6-week old Balb/c mice were dosed twice per week for three weeks with 0.5, 0.1, or 0.02 umol/kg of either a 1-10-1 or 2-8-2 MOE gapmer given by intraperitoneal injection. Mice were sacrificed 48 hours following last administration and evaluated for SGLT2 levels in kidney. Target levels were determined by RT, real-time PCR as described by other examples herein. PCR results were normalized to an internal ISIS control.
substance,measurement,setting,value
372562 (antisense eG*eT*d[5mC]*dT*dT*dG*dG*dA*dG*dG*dG*d[5mC]*e[5mC]*eG) [compound 372562],percent inhibition of DGAT2,rat DGAT2 mRNA [1]; 6.25 nM,0
same,percent inhibition of DGAT2,rat DGAT2 mRNA [1]; 12.5 nM,0
same,percent inhibition of DGAT2,rat DGAT2 mRNA [1]; 50.0 nM,36
same,percent inhibition of DGAT2,rat DGAT2 mRNA [1]; 100.0 nM,48
same,percent inhibition of DGAT2,rat DGAT2 mRNA [1]; 200.0 nM,75
same,percent inhibition of DGAT2,rat DGAT2 mRNA [1]; […],0
372563 (antisense eA*eG*d[5mC]*d[5mC]*dA*dG*dG*dT*dG*dA*d[5mC]*dA*eG*eA) [compound 372563],"DGAT2 mRNA, % Control",DGAT2 mRNA,48%
same,percent inhibition of rat DGAT2,rat DGAT2 mRNA [2]; 0.62 nM,0
same,percent inhibition of rat DGAT2,rat DGAT2 mRNA [2]; 1.85 nM,0
same,percent inhibition of rat DGAT2,rat DGAT2 mRNA [2]; 5.56 nM,0
same,percent inhibition of rat DGAT2,rat DGAT2 mRNA [2]; 16.67 nM,1
same,percent inhibition of rat DGAT2,rat DGAT2 mRNA [2]; 50 nM,4
same,percent inhibition of rat DGAT2,rat DGAT2 mRNA [2]; 150 nM,46
372568 (antisense eG*eA*d[5mC]*dA*d[5mC]*dT*dG*d[5mC]*dA*dG*dG*d[5mC]*e[5mC]*eA) [compound 372568],percent inhibition of DGAT2,rat DGAT2 mRNA [1]; 6.25 nM,0
same,percent inhibition of DGAT2,rat DGAT2 mRNA [1]; 12.5 nM,0
same,percent inhibition of DGAT2,rat DGAT2 mRNA [1]; 50.0 nM,26
same,percent inhibition of DGAT2,rat DGAT2 mRNA [1]; 100.0 nM,72
same,percent inhibition of DGAT2,rat DGAT2 mRNA [1]; 200.0 nM,69
same,percent inhibition of DGAT2,rat DGAT2 mRNA [1]; […],15
372569 (antisense e[5mC]*eA*dT*dG*dA*dG*dG*dA*dT*dG*dA*d[5mC]*eA*e[5mC]) [compound 372569],"DGAT2 mRNA, % Control",DGAT2 mRNA,104%
372578 (antisense eT*eG*dT*dG*dT*d[5mC]*dT*dT*d[5mC]*dA*d[5mC]*d[5mC]*eA*eG) [compound 372578],"DGAT2 mRNA, % Control",DGAT2 mRNA,59%
same,percent inhibition of rat DGAT2,rat DGAT2 mRNA [2]; 0.62 nM,0
same,percent inhibition of rat DGAT2,rat DGAT2 mRNA [2]; 1.85 nM,0
same,percent inhibition of rat DGAT2,rat DGAT2 mRNA [2]; 5.56 nM,0
same,percent inhibition of rat DGAT2,rat DGAT2 mRNA [2]; 16.67 nM,2
same,percent inhibition of rat DGAT2,rat DGAT2 mRNA [2]; 50 nM,7
same,percent inhibition of rat DGAT2,rat DGAT2 mRNA [2]; 150 nM,42
372580 (antisense eG*eG*dT*dT*dG*dT*dG*dT*dG*dT*d[5mC]*dT*eT*e[5mC]) [compound 372580],"DGAT2 mRNA, % Control",DGAT2 mRNA,48%
same,percent inhibition of rat DGAT2,rat DGAT2 mRNA [2]; 0.62 nM,0
same,percent inhibition of rat DGAT2,rat DGAT2 mRNA [2]; 1.85 nM,5
same,percent inhibition of rat DGAT2,rat DGAT2 mRNA [2]; 5.56 nM,5
same,percent inhibition of rat DGAT2,rat DGAT2 mRNA [2]; 16.67 nM,3
same,percent inhibition of rat DGAT2,rat DGAT2 mRNA [2]; 50 nM,16
same,percent inhibition of rat DGAT2,rat DGAT2 mRNA [2]; 150 nM,42
372594 (antisense eA*e[5mC]*dA*dG*dA*dA*dG*dG*d[5mC]*dA*d[5mC]*d[5mC]*e[5mC]*eA) [compound 372594],"DGAT2 mRNA, % Control",DGAT2 mRNA,77%
same,percent inhibition of rat DGAT2,rat DGAT2 mRNA [2]; 0.62 nM,0
same,percent inhibition of rat DGAT2,rat DGAT2 mRNA [2]; 1.85 nM,0
same,percent inhibition of rat DGAT2,rat DGAT2 mRNA [2]; 5.56 nM,0
same,percent inhibition of rat DGAT2,rat DGAT2 mRNA [2]; 16.67 nM,0
same,percent inhibition of rat DGAT2,rat DGAT2 mRNA [2]; 50 nM,2
same,percent inhibition of rat DGAT2,rat DGAT2 mRNA [2]; 150 nM,15
372624 (antisense eT*eG*dG*dT*d[5mC]*dT*dT*dG*dT*dG*dA*dT*eT*eG) [compound 372624],"DGAT2 mRNA, % Control",DGAT2 mRNA,56%
same,percent inhibition of rat DGAT2,rat DGAT2 mRNA [2]; 0.62 nM,0
same,percent inhibition of rat DGAT2,rat DGAT2 mRNA [2]; 1.85 nM,0
same,percent inhibition of rat DGAT2,rat DGAT2 mRNA [2]; 5.56 nM,0
same,percent inhibition of rat DGAT2,rat DGAT2 mRNA [2]; 16.67 nM,1
same,percent inhibition of rat DGAT2,rat DGAT2 mRNA [2]; 50 nM,16
same,percent inhibition of rat DGAT2,rat DGAT2 mRNA [2]; 150 nM,38
ISIS 388627 (antisense eG*e[5mC]*dA*d[5mC]*dA*d[5mC]*dA*dG*d[5mC]*dT*eG*e[5mC]),% change in SGLT2 expression relative to saline,mouse SGLT2 mRNA; 0.02 umol/kg i.p. twice per week for three weeks,−38%
same,% change in SGLT2 expression relative to saline,mouse SGLT2 mRNA; 0.1 umol/kg i.p. twice per week for three weeks,−50%
same,% change in SGLT2 expression relative to saline,mouse SGLT2 mRNA; 0.5 umol/kg i.p. twice per week for three weeks,−65%
